Measured values as given in patent publication US7709490B2, “4,5-diphenyl-pyrimidinyl substituted carboxylic acids, method for the production and use thereof as medicaments” (Sanofi-Aventis, priority 2006, dated 2010).

Biological target: T1, GPCR GPR40 (Homo sapiens, UniProt O14842)
T1 construct: expressed in transfected cells; host or cells: HEK293
Assay: In vitro FLIPR assay with recombinant cells which express the GPCR GPR40
Format: cell-based
Settings: 100 μM test substance; intracellular Ca2+ change in recombinant HEK293 cells expressing GPR40; relative to control (0%: no test substance; 100%: 10 μM linoleic acid)
Protocol: In Vitro FLIPR Assay with Recombinant Cells which Express the GPCR GPR40
Function-testing assays were carried out by means of the FLIPR technique (“Fluorescence Imaging Plate Reader”, Molecular Devices Corp.). For this purpose, agonist-induced changes in the intracellular concentration of Ca^2+ in recombinant HEK293 cells which expressed the GPCR GPR40 were determined.
For the investigations, cells were seeded in 96-well microtiter plates (60 000 cells/well) and allowed to grow overnight. The medium was removed and the cells were incubated in buffer which contained the fluorescent dye fluo-4. After this loading with dye, the cells were washed, test substance was added, and changes in the intracellular Ca^2+ concentration were measured in the FLIPR instrument. Results have been presented as percentage change relative to the control (0%: no test substance added; 100%: 10 μM reference agonist linoleic acid added).

T1 sequence (O14842 whole entry): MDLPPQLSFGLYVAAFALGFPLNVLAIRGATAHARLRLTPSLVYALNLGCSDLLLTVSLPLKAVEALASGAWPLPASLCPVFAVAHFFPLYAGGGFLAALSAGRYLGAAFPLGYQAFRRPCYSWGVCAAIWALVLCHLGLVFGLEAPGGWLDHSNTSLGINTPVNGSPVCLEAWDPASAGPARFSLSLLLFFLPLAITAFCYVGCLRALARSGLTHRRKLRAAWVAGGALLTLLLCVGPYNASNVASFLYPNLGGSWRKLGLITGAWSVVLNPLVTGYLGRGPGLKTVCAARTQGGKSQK

## O=C(O)CCCC#Cc1ncc(-c2ccccc2)c(-c2ccccc2)n1 [Example 1]
  % activation @ 100 μM: 58%

## O=C(O)CCCCC#Cc1ncc(-c2ccccc2)c(-c2ccccc2)n1 [Example 2, 7-(4,5-Diphenylpyrimidin-2-yl)-6-heptynoic Acid]
  % activation @ 100 μM: 104%
